Data reported in US20250340561A1, “QUINAZOLINE COMPOUND FOR INDUCING DEGRADATION OF G12D MUTANT KRAS PROTEIN” (Astellas Pharma Inc., priority 2021, published 2025).

Biological target: T1, KRAS G12D (Homo sapiens, UniProt P01116, G12D)
T1 construct: host or cells: AsPC-1 human pancreatic cancer cells
Test: Test Example 1-2: KRAS degradation action in AsPC-1, Cell ELISA
Assay type: cell-based
Details: AsPC-1 cells, overnight treatment, corrected with β-actin, 0% = 10 μM Example No. 26 (Example No. 8 for Example Nos. 74 and 75)
Procedure: Test Example 1-2: Evaluation of KRAS Degradation Action on Human G12D Mutant KRAS-Positive Pancreatic Cancer Line AsPC-1
The KRAS degradation action of test compounds was evaluated by measuring the expression levels of KRAS G12D by Cell ELISA.
[…] As for the cell culture conditions, a RPMI 1640 medium containing 10% fetal bovine serum was used in the presence of 5% CO2 at 37° C. The next day, the test compounds (10 points having final concentrations in the range of 10 μM to 0.3 nM), the compound of Example No. 26 (Example No. 8 for Example Nos. 74 and 75) of a final concentration of 10 μM as a positive control and DMSO, which was the solvent for the test compounds, as a negative control were diluted 500-fold with a fresh medium and were added at 20 μL per well. The cells were cultured overnight.
The next day, the culture supernatant was removed, and 4% paraformaldehyde phosphate buffer (from FUJIFILM Wako Pure Chemical Corporation) was added at 20 μL per well. The plate was allowed to stand for 30 minutes at room temperature to thus immobilize the cells. Then, the supernatant was removed, and 0.1% Triton X-100 (from Amersham Biosciences)-containing PBS was added at 20 μL per well. After allowing to stand for 10 minutes at room temperature, the supernatant was removed. PBS was added at 25 μL per well, and the supernatant was removed to thus wash each well. The washing was performed twice in total. Next, the supernatant was removed, and 0.5% sodium dodecyl sulfate (SDS; from Invitrogen)-containing PBS was added at 20 μL per well. After allowing to stand at room temperature for 10 minutes, the supernatant was removed by centrifugation (using a centrifugal dehydrator machine, the supernatant was removed by the same method hereinafter). PBS was added at 25 μL per well, and the supernatant was removed to thus wash each well. The washing was performed twice in total. The supernatant was removed by centrifugation, and a blocking solution (Intercept Blocking Buffer) was added at 20 μL per well. After allowing to stand for 30 minutes at room temperature, the supernatant was removed by centrifugation, and a solution obtained by diluting an anti-Ras (G12D Mutant Specific) antibody and an anti-3-actin antibody 1,000-fold with a blocking solution was added at 20 μL per well as a primary antibody. The plate was allowed to stand overnight at 4° C.
The next day, the plate was centrifuged to remove the supernatant. PBS was added at […], and the supernatant was removed to thus wash each well. The washing was performed twice in total. The supernatant was removed by centrifugation, and a solution obtained by diluting Donkey anti-Mouse IgG H&L (TRDye 680RD) (from Li—COR Biosciences) and Goat anti-Rabbit IgG H&L (IRDye 800CW) (from Li—COR Biosciences) 1,000-fold with a blocking solution was added at 20 μL per well as a secondary antibody. After allowing to stand for 1 hour at room temperature, the supernatant was removed. PBS was added at 25 μL per well, and the supernatant was removed to thus wash each well. The washing was performed twice in total. After removing the supernatant by centrifuging the plate, the plate was dried as it was with air at room temperature for 2 hours or more, and the 700-nm and 800-nm fluorescent signals were measured with Aerius (from LI-COR Biosciences).
With the signaling value at the time of addition of DMSO corrected with the signaling value of β-actin taken as 100% and with the signaling value at the time of addition of 10 μM of the compound of Example No. 26 taken as 0%, the 50% degradation values (DC50) of the amounts of KRAS were calculated by Sigmoid-Emax model nonlinear regression analysis. The molecular weights of the test compounds were calculated as the molecular weights of the trihydrochloride for Example No. 30, the tetrahydrochloride for Example No. 46 and the free forms forming no salt for the remaining Example Nos. The results for some test compounds of the formula (I) are shown in Table 2.

T1 sequence (P01116 1-188 isoform P01116-2 G12D): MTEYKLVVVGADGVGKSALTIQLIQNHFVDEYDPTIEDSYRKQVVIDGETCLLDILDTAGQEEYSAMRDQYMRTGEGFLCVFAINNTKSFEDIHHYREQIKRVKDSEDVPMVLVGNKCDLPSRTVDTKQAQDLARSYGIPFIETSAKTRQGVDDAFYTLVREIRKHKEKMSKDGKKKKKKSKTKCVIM

SMILES: Cc1ncsc1-c1ccc([C@H](CO)NC(=O)[C@@H]2C[C@@H](O)CN2C(=O)[C@@H](NC(=O)C[C@@H]2CCN(C(=O)c3ccc(COc4c(-c5c(C)c(F)cc6[nH]ncc56)c(C5CC5)cc5c(N6C[C@@H]7C[C@H]6CN7)nc(OC6CCOCC6)nc45)cc3)C2)C(C)C)cc1 [Example 75]
- DC50: 5.89 µM

SMILES: Cc1ncsc1-c1ccc([C@H](CO)NC(=O)[C@@H]2C[C@@H](O)CN2C(=O)[C@@H](NC(=O)CCN(C)C(=O)c2ccc(COc3c(-c4c(C)c(F)cc5[nH]ncc45)c(C4CC4)cc4c(N5C[C@@H]6C[C@H]5CN6)nc(OC5CCOCC5)nc34)cc2)C(C)C)cc1 [Example 74]
- DC50: 1 µM
